# Data as given in ChEMBL document CHEMBL1201861, “Genomics of Drug Sensitity in Cancer screening data, Wellcome Trust Sanger Institute”.
# pIC50: −log10 of the molar value.
# Experiments:
# UACC-812 = assay: cells; type: functional, cell-based; settings: Homo sapiens
# Description: SANGER: Inhibition of human UACC-812 cell growth in a cell viability assay.
# EB2 = assay: cells; type: functional, cell-based; settings: Homo sapiens;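 also: growth inhibition of EB2 cells, read out with a cell viability assay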
# Description: SANGER: Inhibition of human EB2 cell growth in a cell viability assay.
# NCCIT = assay: SANGER: Inhibition of human NCCIT cell growth in a cell viability assay.; type: functional, cell-based
# KARPAS-422 = assay: cells; type: functional, cell-based; settings: Homo sapiens
# Description: SANGER: Inhibition of human KARPAS-422 cell growth in a cell viability assay.
# NB1 = assay: cells; type: functional, cell-based; settings: Homo sapiens;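 also: reduction of NB1 cell proliferation, read out with a viability assay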
# Description: SANGER: Inhibition of human NB1 cell growth in a cell viability assay.
# DMS-153 = assay: cells; type: functional, cell-based; settings: Homo sapiens
# Description: SANGER: Inhibition of human DMS-153 cell growth in a cell viability assay.
# CMK = assay: cells; type: functional, cell-based; settings: Homo sapiens;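 also: growth inhibition of CMK cells, read out as cell viability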
# Description: SANGER: Inhibition of human CMK cell growth in a cell viability assay.
# IMR-5 = assay: cells; type: functional, cell-based; settings: Homo sapiens;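 also: growth inhibition of human IMR-5 cells, read out with a cell viability assay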
# Description: SANGER: Inhibition of human IMR-5 cell growth in a cell viability assay.
# RPMI-6666 = assay: cells; type: functional, cell-based; settings: Homo sapiens
# Description: SANGER: Inhibition of human RPMI-6666 cell growth in a cell viability assay.
# NCI-H2196 = assay: cells; type: functional, cell-based; settings: Homo sapiens;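 also: cell viability assay used as the readout of growth inhibition in NCI-H2196 cells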
# Description: SANGER: Inhibition of human NCI-H2196 cell growth in a cell viability assay.
# TALL-1 = assay: cells; type: functional, cell-based; settings: Homo sapiens;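 also: growth inhibition of cultured human TALL-1 cells, read out by a cell viability assay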
# Description: SANGER: Inhibition of human TALL-1 cell growth in a cell viability assay.
# PF-382 = assay: cells; type: functional, cell-based; settings: Homo sapiens
# Description: SANGER: Inhibition of human PF-382 cell growth in a cell viability assay.
# BL-41 = assay: cells; type: functional, cell-based; settings: Homo sapiens;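 also: growth inhibition of human BL-41 cells, read out with a cell viability assay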
# Description: SANGER: Inhibition of human BL-41 cell growth in a cell viability assay.
# NCI-H1882 = assay: cells; type: functional, cell-based; settings: Homo sapiens;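 also: growth inhibition of the cell line, determined with a viability assay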
# Description: SANGER: Inhibition of human NCI-H1882 cell growth in a cell viability assay.
# SU-DHL-1 = assay: SANGER: Inhibition of human SU-DHL-1 cell growth in a cell viability assay.; type: functional, cell-based
# ARH-77 = assay: cells; type: functional, cell-based; settings: Homo sapiens;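 also: growth inhibition of ARH-77 cells, read out by a cell viability assay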
# Description: SANGER: Inhibition of human ARH-77 cell growth in a cell viability assay.
# NCI-H2081 = assay: cells; type: functional, cell-based; settings: Homo sapiens;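 also: growth inhibition of human NCI-H2081 cells, read out with a cell viability assay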
# Description: SANGER: Inhibition of human NCI-H2081 cell growth in a cell viability assay.
# SCLC-21H = assay: cells; type: functional, cell-based; settings: Homo sapiens;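 also: growth inhibition of cultured human SCLC-21H cells, read out with a cell viability assay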
# Description: SANGER: Inhibition of human SCLC-21H cell growth in a cell viability assay.
# HCC1599 = assay: cells; type: functional, cell-based; settings: Homo sapiens;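 also: growth inhibition of HCC1599 cells, read out in a cell viability assay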
# Description: SANGER: Inhibition of human HCC1599 cell growth in a cell viability assay.
# NCI-H1694 = assay: cells; type: functional, cell-based; settings: Homo sapiens;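 also: cell viability assay measuring inhibition of growth in human NCI-H1694 cells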
# Description: SANGER: Inhibition of human NCI-H1694 cell growth in a cell viability assay.
# SUP-T1 = assay: cells; type: functional, cell-based; settings: Homo sapiens;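 also: growth inhibition of human SUP-T1 cells, read out as cell viability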
# Description: SANGER: Inhibition of human SUP-T1 cell growth in a cell viability assay.
# JIYOYE = assay: cells; type: functional, cell-based; settings: Homo sapiens
# Description: SANGER: Inhibition of human JiyoyeP-2003 cell growth in a cell viability assay.
# L-540 = assay: cells; type: functional, cell-based; settings: Homo sapiens;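 also: growth inhibition of the human L-540 cell line, read out with a viability assay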
# Description: SANGER: Inhibition of human L-540 cell growth in a cell viability assay.
# TE-441-T = assay: cells; type: functional, cell-based; settings: Homo sapiens
# Description: SANGER: Inhibition of human TE-441-T cell growth in a cell viability assay.
# Kasumi 1 = assay: cells; type: functional, cell-based; settings: Homo sapiens;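 also: growth inhibition of human Kasumi-1 cells, read out by a cell viability assay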
# Description: SANGER: Inhibition of human KASUMI-1 cell growth in a cell viability assay.
# MRK-nu-1 = assay: cells; type: functional, cell-based; settings: Homo sapiens;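 also: cell viability assay measuring growth suppression of human MRK-nu-1 cells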
# Description: SANGER: Inhibition of human MRK-nu-1 cell growth in a cell viability assay.
# EVSA-T = assay: cells; type: functional, cell-based, Homo sapiens; settings: Homo sapiens, EVSA-T;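 also: growth inhibition of EVSA-T cells, read out with a cell viability assay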
# Description: SANGER: Inhibition of human EVSA-T cell growth in a cell viability assay.
# CA46 = assay: cells; type: functional, cell-based; settings: Homo sapiens;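 also: growth inhibition of human CA46 cells, read out by a cell viability assay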
# Description: SANGER: Inhibition of human CA46 cell growth in a cell viability assay.
# LP-1 = assay: cells; type: functional, cell-based; settings: Homo sapiens;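 also: growth inhibition of human LP-1 cells, with the read-out taken from a cell viability assay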
# Description: SANGER: Inhibition of human LP-1 cell growth in a cell viability assay.
# Daudi = assay: cells; type: functional, cell-based; settings: Homo sapiens;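 also: growth inhibition of Daudi cells, read out by a viability assay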
# Description: SANGER: Inhibition of human Daudi cell growth in a cell viability assay.
# CPC-N = assay: cells; type: functional, cell-based; settings: Homo sapiens;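 also: growth inhibition of CPC-N cells, with a cell viability assay as the readout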
# Description: SANGER: Inhibition of human CPC-N cell growth in a cell viability assay.
# RL95-2 = assay: cells; type: functional, cell-based; settings: Homo sapiens;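 also: RL95-2 growth inhibition determined through a cell viability readout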
# Description: SANGER: Inhibition of human RL95-2 cell growth in a cell viability assay.
# NCI-H748 = assay: cells; type: functional, cell-based; settings: Homo sapiens;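 also: growth inhibition of NCI-H748 cells, measured by a cell viability assay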
# Description: SANGER: Inhibition of human NCI-H748 cell growth in a cell viability assay.
# RPMI 8402 = assay: SANGER: Inhibition of human RPMI-8402 cell growth in a cell viability assay.; type: functional, cell-based
# LC-1F = assay: cells; type: functional, cell-based; settings: Homo sapiens;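 also: growth inhibition of human LC-1F cells, read out with a cell viability assay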
# Description: SANGER: Inhibition of human LC-1F cell growth in a cell viability assay.
# KMS-12-PE = assay: cells; type: functional, cell-based; settings: Homo sapiens;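 also: growth inhibition of human KMS-12-PE cells, measured with a cell viability assay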
# Description: SANGER: Inhibition of human KMS-12-PE cell growth in a cell viability assay.
# NCI-H1522 = assay: cells; type: functional, cell-based; settings: Homo sapiens;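 also: growth inhibition of NCI-H1522 cells, read out with a cell viability assay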
# Description: SANGER: Inhibition of human NCI-H1522 cell growth in a cell viability assay.
# NCI-H719 = assay: cells; type: functional, cell-based; settings: Homo sapiens;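 also: growth inhibition of the cultured cell line, read out with a viability assay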
# Description: SANGER: Inhibition of human NCI-H719 cell growth in a cell viability assay.
# EHEB = assay: cells; type: functional, cell-based; settings: Homo sapiens;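 also: growth inhibition of human EHEB cells, read out with a cell viability assay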
# Description: SANGER: Inhibition of human EHEB cell growth in a cell viability assay.
# NCI-H1436 = assay: cells; type: functional, cell-based; settings: Homo sapiens;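 also: growth suppression of human NCI-H1436 cells, determined with a cell viability readout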
# Description: SANGER: Inhibition of human NCI-H1436 cell growth in a cell viability assay.
# NCI-H1417 = assay: cells; type: functional, cell-based; settings: Homo sapiens;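 also: human NCI-H1417 cells, growth inhibition determined with a cell viability readout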
# Description: SANGER: Inhibition of human NCI-H1417 cell growth in a cell viability assay.
# BL-70 = assay: SANGER: Inhibition of human BL-70 cell growth in a cell viability assay.; type: functional, cell-based
# G-361 = assay: cells; type: functional, cell-based, Homo sapiens; settings: Homo sapiens, G-361
# SNU-423 = assay: cells; type: functional, cell-based, Homo sapiens; settings: Homo sapiens, SNU-423
# Description: SANGER: Inhibition of human SNU-423 cell growth in a cell viability assay.
# 23132-87 = assay: cells; type: functional, cell-based, Homo sapiens; settings: Homo sapiens
# Description: SANGER: Inhibition of human 23132-87 cell growth in a cell viability assay.
# HT55 = assay: cells; type: functional, cell-based, Homo sapiens; settings: Homo sapiens, HT55;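 also: cell viability readout measuring growth inhibition of human HT55 cells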
# Description: SANGER: Inhibition of human HT55 cell growth in a cell viability assay.
# NCI-H1703 = assay: cells; type: functional, cell-based, Homo sapiens; settings: Homo sapiens, NCI-H1703;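 also: growth inhibition of NCI-H1703 cells, read out via a cell viability assay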
# Description: SANGER: Inhibition of human NCI-H1703 cell growth in a cell viability assay.
# NCI-H1573 = assay: cells; type: functional, cell-based; settings: Homo sapiens;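 also: growth inhibition of NCI-H1573 cells, read out with a cell viability assay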
# Description: SANGER: Inhibition of human NCI-H1573 cell growth in a cell viability assay.
# NCI-H522 = assay: cells; type: functional, cell-based, Homo sapiens; settings: Homo sapiens, NCI-H522;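 also: cell viability assay measuring growth inhibition of human NCI-H522 cells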
# Description: SANGER: Inhibition of human NCI-H522 cell growth in a cell viability assay.
# HCT-15 = assay: cells; type: functional, cell-based, Homo sapiens; settings: Homo sapiens, HCT-15;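 also: cell viability readout, IC50 reflecting suppression of HCT-15 cell growth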
# Description: SANGER: Inhibition of human HCT-15 cell growth in a cell viability assay.
# MOLT-13 = assay: cells; type: functional, cell-based; settings: Homo sapiens;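 also: IC50 for suppression of MOLT-13 cell growth, read out with a cell viability assay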
# Description: SANGER: Inhibition of human MOLT-13 cell growth in a cell viability assay.
structure (smiles),measurement,setting,value
CO[C@H]1C[C@@H]2CC[C@@H](C)[C@@](O)(O2)C(=O)C(=O)N2CCCC[C@H]2C(=O)O[C@H]([C@H](C)C[C@@H]2CC[C@@H](O)[C@H](OC)C2)CC(=O)[C@H](C)/C=C(\C)[C@@H](O)[C@@H](OC)C(=O)[C@H](C)C[C@H](C)/C=C/C=C/C=C/1C [SIROLIMUS],pIC50,UACC-812,< 7.00
same,pIC50,EB2,< 7.00
same,pIC50,NCCIT,< 7.00
same,pIC50,KARPAS-422,< 7.00
same,pIC50,NB1,< 7.00
same,pIC50,DMS-153,< 7.00
same,pIC50,CMK,7.07
same,pIC50,IMR-5,< 7.00
same,pIC50,RPMI-6666,7.61
same,pIC50,NCI-H2196,< 7.00
same,pIC50,TALL-1,< 7.00
same,pIC50,PF-382,7.01
same,pIC50,BL-41,7.36
same,pIC50,NCI-H1882,< 7.00
same,pIC50,SU-DHL-1,< 7.00
same,pIC50,ARH-77,7.28
same,pIC50,NCI-H2081,< 7.00
same,pIC50,SCLC-21H,< 7.00
same,pIC50,HCC1599,< 7.00
same,pIC50,NCI-H1694,< 7.00
same,pIC50,SUP-T1,< 7.00
same,pIC50,JIYOYE,7.96
same,pIC50,L-540,7.98
same,pIC50,TE-441-T,< 7.00
same,pIC50,Kasumi 1,< 7.00
same,pIC50,MRK-nu-1,> 9.41
same,pIC50,EVSA-T,< 7.00
same,pIC50,CA46,< 7.00
same,pIC50,LP-1,< 7.00
same,pIC50,Daudi,9.36
same,pIC50,CPC-N,< 7.00
same,pIC50,RL95-2,9.97
same,pIC50,NCI-H748,< 7.00
same,pIC50,RPMI 8402,7.66
same,pIC50,LC-1F,< 7.00
same,pIC50,KMS-12-PE,< 7.00
same,pIC50,NCI-H1522,< 7.00
same,pIC50,NCI-H719,< 7.00
same,pIC50,EHEB,< 7.00
same,pIC50,NCI-H1436,< 7.00
same,pIC50,NCI-H1417,< 7.00
same,pIC50,BL-70,7.55
Cn1cncc1[C@@](N)(c1ccc(Cl)cc1)c1ccc2c(c1)c(-c1cccc(Cl)c1)cc(=O)n2C [TIPIFARNIB],pIC50,UACC-812,< 4.80
same,pIC50,EB2,5.57
same,pIC50,NCCIT,5.89
same,pIC50,KARPAS-422,< 4.80
same,pIC50,NB1,< 4.80
same,pIC50,DMS-153,< 4.80
same,pIC50,CMK,6.82
same,pIC50,IMR-5,< 4.80
same,pIC50,RPMI-6666,> 7.20
same,pIC50,G-361,5.94
same,pIC50,NCI-H2196,< 4.80
same,pIC50,TALL-1,< 4.80
same,pIC50,PF-382,5.77
same,pIC50,BL-41,5.56
same,pIC50,NCI-H1882,< 4.80
same,pIC50,SNU-423,6.15
same,pIC50,SU-DHL-1,5.14
same,pIC50,ARH-77,< 4.80
same,pIC50,NCI-H2081,< 4.80
same,pIC50,SCLC-21H,< 4.80
same,pIC50,HCC1599,< 4.80
same,pIC50,NCI-H1694,< 4.80
same,pIC50,SUP-T1,6.10
same,pIC50,JIYOYE,5.04
same,pIC50,L-540,5.32
same,pIC50,TE-441-T,< 4.80
same,pIC50,MRK-nu-1,5.95
same,pIC50,EVSA-T,< 4.80
same,pIC50,CA46,5.62
same,pIC50,23132-87,5.17
same,pIC50,HT55,< 4.80
same,pIC50,LP-1,< 4.80
same,pIC50,Daudi,5.60
same,pIC50,CPC-N,4.83
same,pIC50,NCI-H748,< 4.80
same,pIC50,RPMI 8402,5.89
same,pIC50,LC-1F,< 4.80
same,pIC50,KMS-12-PE,< 4.80
same,pIC50,NCI-H1703,< 4.80
same,pIC50,NCI-H1522,< 4.80
same,pIC50,NCI-H719,4.98
same,pIC50,EHEB,< 4.80
same,pIC50,NCI-H1436,< 4.80
same,pIC50,NCI-H1417,< 4.80
same,pIC50,NCI-H1573,5.23
same,pIC50,NCI-H522,5.62
same,pIC50,BL-70,5.71
same,pIC50,HCT-15,6.49
CCC(=O)N1CCN(c2ccc(-n3c(=O)ccc4cnc5ccc(-c6cnc7ccccc7c6)cc5c43)cc2C(F)(F)F)CC1 [TORIN1],pIC50,EB2,< 5.92
same,pIC50,NCCIT,6.27
same,pIC50,KARPAS-422,6.91
same,pIC50,NB1,6.55
same,pIC50,DMS-153,< 5.92
same,pIC50,CMK,7.81
same,pIC50,IMR-5,6.78
same,pIC50,RPMI-6666,6.54
same,pIC50,NCI-H2196,6.48
same,pIC50,TALL-1,6.64
same,pIC50,PF-382,7.12
same,pIC50,BL-41,8.16
same,pIC50,NCI-H1882,6.78
same,pIC50,SU-DHL-1,6.19
same,pIC50,ARH-77,7.14
same,pIC50,NCI-H2081,< 5.92
same,pIC50,SCLC-21H,< 5.92
same,pIC50,HCC1599,7.31
same,pIC50,NCI-H1694,6.30
same,pIC50,SUP-T1,< 5.92
same,pIC50,JIYOYE,6.96
same,pIC50,L-540,6.52
same,pIC50,TE-441-T,5.98
same,pIC50,Kasumi 1,< 5.92
same,pIC50,MRK-nu-1,8.15
same,pIC50,EVSA-T,8.05
same,pIC50,MOLT-13,6.52
same,pIC50,CA46,6.29
same,pIC50,LP-1,7.05
same,pIC50,Daudi,7.37
same,pIC50,CPC-N,5.94
same,pIC50,RL95-2,8.49
same,pIC50,NCI-H748,6.72
same,pIC50,RPMI 8402,7.11
same,pIC50,LC-1F,7.40
same,pIC50,KMS-12-PE,< 5.92
same,pIC50,NCI-H1522,6.19
same,pIC50,NCI-H719,6.01
same,pIC50,EHEB,6.29
same,pIC50,NCI-H1436,< 5.92
same,pIC50,NCI-H1417,6.16
same,pIC50,BL-70,8.47
Cc1cc(Nc2cc(N3CCN(C)CC3)nc(Sc3ccc(NC(=O)C4CC4)cc3)n2)n[nH]1 [TOZASERTIB],pIC50,EB2,< 5.70
same,pIC50,NCCIT,< 5.70
same,pIC50,KARPAS-422,6.43
same,pIC50,NB1,< 5.70
same,pIC50,DMS-153,< 5.70
same,pIC50,CMK,5.85
same,pIC50,IMR-5,6.45
same,pIC50,RPMI-6666,< 5.70
same,pIC50,NCI-H2196,< 5.70
same,pIC50,TALL-1,< 5.70
same,pIC50,PF-382,< 5.70
same,pIC50,BL-41,6.98
same,pIC50,NCI-H1882,< 5.70
same,pIC50,SU-DHL-1,< 5.70
same,pIC50,ARH-77,< 5.70
same,pIC50,NCI-H2081,< 5.70
same,pIC50,SCLC-21H,5.71
same,pIC50,HCC1599,6.09
same,pIC50,NCI-H1694,< 5.70
same,pIC50,SUP-T1,< 5.70
same,pIC50,JIYOYE,< 5.70
same,pIC50,L-540,< 5.70
same,pIC50,TE-441-T,< 5.70
same,pIC50,Kasumi 1,< 5.70
same,pIC50,MRK-nu-1,6.42
same,pIC50,EVSA-T,< 5.70
same,pIC50,CA46,< 5.70
same,pIC50,LP-1,< 5.70
same,pIC50,Daudi,< 5.70
same,pIC50,CPC-N,< 5.70
same,pIC50,RL95-2,6.39
same,pIC50,NCI-H748,< 5.70
same,pIC50,RPMI 8402,< 5.70
same,pIC50,LC-1F,< 5.70
same,pIC50,KMS-12-PE,< 5.70
same,pIC50,NCI-H1522,< 5.70
same,pIC50,NCI-H719,< 5.70
same,pIC50,EHEB,< 5.70
same,pIC50,NCI-H1436,< 5.70
same,pIC50,NCI-H1417,< 5.70
same,pIC50,BL-70,6.41
